Data published in US20140170110A1, “PYRIDIN-2(1H)-ONE DERIVATIVES USEFUL AS MEDICAMENTS FOR THE TREATMENT OF MYELOPROLIFERATIVE DISORDERS, TRANSPLANT REJECTION, IMMUNE-MEDIATED AND INFLAMMATORY DISEASES” (ALMIRALL, S.A., priority 2011, published 2014).

Legend:
Type in all cases: biochemical
human JAK3 (aa 795-1124) = target: T1, human JAK3 (aa 795-1124) (Homo sapiens, UniProt P52333); assay: In vitro JAK kinase assay (TR-FRET), JAK3; settings: catalytic domain GST-fusion; ATP 0.6 μM; poly (GT)-Biotin 140 nM; 30 minutes at room temperature
T1 construct: JAK3 (aa 795-1124); GST (N); purchased Carna Biosciences; host or cells: baculovirus expression system
Method: (§1) Compounds were screened for their ability to inhibit JAK1, JAK2 and JAK3 using the assays as indicated below.
(§2) The enzymatic activity was assayed using as substrate a biotinylated peptide, poly (GT)-Biotin (CisBio). […] The degree of phosphorylation was detected by TR-FRET (time-resolved fluorescence energy transfer).
(§3) The enzymatic reactions took place for 30 minutes at room temperature. […] Incubate for 3 h and read on Victor 2V spectrofluorometer (PerkinElmer) set to read fluorescence resonance energy transfer.

human JAK1 (aa 850-1154) = target: T2, human JAK1 (aa 850-1154) (Homo sapiens, UniProt P23458); assay: In vitro JAK kinase assay (TR-FRET), JAK1; settings: catalytic domain GST-fusion; ATP 3 μM; poly (GT)-Biotin 60 nM; 30 minutes at room temperature
T2 construct: human JAK1 (aa 850-1154); GST (N); purchased Carna Biosciences; host or cells: baculovirus expression system
Method: as §1, §2, §3

human JAK2 (aa 826-1132) = target: T3, human JAK2 (aa 826-1132) (Homo sapiens, UniProt O60674); assay: In vitro JAK kinase assay (TR-FRET), JAK2; settings: catalytic domain GST-fusion; ATP 0.2 μM; poly (GT)-Biotin 20 nM; 30 minutes at room temperature
T3 construct: JAK2 (aa 826-1132); GST (N); purchased Carna Biosciences; host or cells: baculovirus expression system
Method: as §1, §2, §3

T1 sequence (P52333 795-1124): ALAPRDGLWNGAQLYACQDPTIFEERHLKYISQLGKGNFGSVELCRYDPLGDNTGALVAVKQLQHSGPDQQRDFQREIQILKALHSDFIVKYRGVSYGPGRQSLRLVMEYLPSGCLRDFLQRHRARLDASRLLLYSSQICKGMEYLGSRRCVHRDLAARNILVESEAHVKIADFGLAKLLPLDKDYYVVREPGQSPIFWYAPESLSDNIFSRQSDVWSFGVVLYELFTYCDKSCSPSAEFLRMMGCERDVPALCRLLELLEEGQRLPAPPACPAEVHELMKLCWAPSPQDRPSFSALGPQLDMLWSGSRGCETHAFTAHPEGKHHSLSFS
T3 sequence (O60674 826-1132): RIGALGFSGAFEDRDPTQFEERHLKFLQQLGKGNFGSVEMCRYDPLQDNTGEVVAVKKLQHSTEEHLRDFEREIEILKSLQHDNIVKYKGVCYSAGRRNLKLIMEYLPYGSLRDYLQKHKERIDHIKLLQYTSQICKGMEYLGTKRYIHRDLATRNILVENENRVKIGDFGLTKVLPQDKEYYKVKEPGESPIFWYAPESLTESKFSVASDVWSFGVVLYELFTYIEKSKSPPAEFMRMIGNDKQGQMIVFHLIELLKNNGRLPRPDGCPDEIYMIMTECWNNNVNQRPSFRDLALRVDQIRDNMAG
T2 sequence (P23458 850-1154): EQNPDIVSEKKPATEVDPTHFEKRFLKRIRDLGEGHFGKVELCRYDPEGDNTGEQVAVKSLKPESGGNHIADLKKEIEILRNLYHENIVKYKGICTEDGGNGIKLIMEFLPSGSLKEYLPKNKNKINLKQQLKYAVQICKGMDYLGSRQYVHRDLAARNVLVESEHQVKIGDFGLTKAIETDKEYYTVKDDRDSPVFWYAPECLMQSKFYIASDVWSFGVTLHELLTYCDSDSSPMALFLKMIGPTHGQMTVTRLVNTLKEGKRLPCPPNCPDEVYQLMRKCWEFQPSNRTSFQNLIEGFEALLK

IC50 (human JAK3 (aa 795-1124)) [nM] | IC50 (human JAK1 (aa 850-1154)) [nM] | IC50 (human JAK2 (aa 826-1132)) [nM] | SMILES
< 100 | 100 to 1000 | < 100 | O=c1[nH]cccc1Nc1nc2c(cc1F)[nH]c(=O)n2C1CCOCC1 [Example 49, 6-Fluoro-5-(2-oxo-1,2-dihydropyridin-3-ylamino)-3-(tetrahydro-2H-pyran-4-yl)-1H-imidazo[4,5-b]pyridin-2(3H)-one]
100 to 1000 | > 1000 | < 100 | C[C@H](c1ncc(F)cn1)n1c(=O)[nH]c2cnc(Nc3cnc[nH]c3=O)nc21 [Example 52, (R)-9-(1-(5-Fluoropyrimidin-2-yl)ethyl)-2-(6-oxo-1,6-dihydropyrimidin-5-ylamino)-7H-purin-8(9H)-one]
< 100 | < 100 | < 100 | O=c1[nH]cc(C(F)F)cc1Nc1ncc2[nH]c(=O)n(C3CCOCC3)c2n1 [Example 5, 2-(5-(Difluoromethyl)-2-oxo-1,2-dihydropyridin-3-ylamino)-9-(tetrahydro-2H-pyran-4-yl)-7H-purin-8(9H)-one]
< 100 | 100 to 1000 | < 100 | O=c1[nH]cccc1Nc1ncc2[nH]c(=O)n(C3CCOCC3)c2n1 [Example 1, 2-(2-Oxo-1,2-dihydropyridin-3-ylamino)-9-(tetrahydro-2H-pyran-4-yl)-7H-purin-8(9H)-one]
< 100 | 100 to 1000 | < 100 | N#C[C@@H]1CCCC[C@H]1n1c(=O)[nH]c2cnc(Nc3ccc[nH]c3=O)nc21 (relative stereo) [Example 23, trans-2-(8-Oxo-2-(2-oxo-1,2-dihydropyridin-3-ylamino)-7H-purin-9(8H)-yl)cyclo hexanecarbonitrile]
100 to 1000 | 100 to 1000 | 100 to 1000 | O=c1[nH]cncc1Nc1ncc2[nH]c(=O)n(C3CCOCC3)c2n1 [Example 51, 2-(6-Oxo-1,6-dihydropyrimidin-5-ylamino)-9-(tetrahydro-2H-pyran-4-yl)-7H-purin-8(9H)-one]
< 100 | 100 to 1000 | 100 to 1000 | O=c1[nH]nc(Cl)cc1Nc1ncc2[nH]c(=O)n(C3CCOCC3)c2n1 [Example 54, 2-(6-Chloro-3-oxo-2,3-dihydropyridazin-4-ylamino)-9-(tetrahydro-2H-pyran-4-yl)-7H-purin-8(9H)-one]
< 100 | 100 to 1000 | < 100 | O=c1[nH]cccc1Nc1ncc2[nH]c(=O)n([C@@H]3CCCC[C@@H]3CO)c2n1 (relative stereo) [Example 21, 9-(cis-2-(Hydroxymethyl)cyclohexyl)-2-(2-oxo-1,2-dihydropyridin-3-ylamino)-7H-purin-8(9H)-one]
< 100 | > 1000 | < 100 | O=c1[nH]cccc1Nc1nc(N2CCOCC2)c2[nH]c(=O)n(C3CCOCC3)c2n1 [Example 50, 6-Morpholino-2-(2-oxo-1,2-dihydropyridin-3-ylamino)-9-(tetrahydro-2H-pyran-4-yl)-7H-purin-8(9H)-one]
< 100 | 100 to 1000 | < 100 | O=c1[nH]cccc1Nc1ncc2c(n1)n(C1CCOCC1)c(=O)n2CCO [Example 46, 7-(2-Hydroxyethyl)-2-(2-oxo-1,2-dihydropyridin-3-ylamino)-9-(tetrahydro-2H-pyran-4-yl)-7H-purin-8(9H)-one]
< 100 | 100 to 1000 | < 100 | O=c1[nH]cccc1Nc1ncc2[nH]c(=O)n([C@@H]3CC=Cc4ccccc43)c2n1 [Example 31, (R)-9-(1,2-Dihydronaphthalen-1-yl)-2-(2-oxo-1,2-dihydropyridin-3-ylamino)-7H-purin-8(9H)-one]
< 100 | < 100 | < 100 | O=c1[nH]cccc1Nc1ncc2[nH]c(=O)n(C3CCCCC3)c2n1 [Example 14, 9-Cyclohexyl-2-(2-oxo-1,2-dihydropyridin-3-ylamino)-7H-purin-8(9H)-one]
< 100 | 100 to 1000 | < 100 | O=c1[nH]cccc1Nc1ncc2[nH]c(=O)n([C@H]3CC[C@@H](n4cncn4)CC3)c2n1 [Example 22, 9-((1s,4s)-4-(1H-1,2,4-Triazol-1-yl)cyclohexyl)-2-(2-oxo-1,2-dihydropyridin-3-ylamino)-7H-purin-8(9H)-one]
< 100 | 100 to 1000 | < 100 | O=c1[nH]cccc1Nc1ncc2[nH]c(=O)n(C3CCSCC3)c2n1 [Example 12, 2-(2-Oxo-1,2-dihydropyridin-3-ylamino)-9-(tetrahydro-2H-thiopyran-4-yl)-7H-purin-8(9H)-one]
100 to 1000 | 100 to 1000 | < 100 | CS(=O)(=O)C[C@H]1CC[C@H](n2c(=O)[nH]c3cnc(Nc4ccc[nH]c4=O)nc32)CC1 [Example 39, 9-((1r,4r)-4-(Methylsulfonylmethyl)cyclohexyl)-2-(2-oxo-1,2-dihydropyridin-3-ylamino)-7H-purin-8(9H)-one]
